In US20180022780A1, “STABILIZATION ADRENOMEDULLIN DERIVATIVES AND USE THEREOF” (priority 2014, published 2018):
One block for each molecule: values may come before it. Bridge positions count the residues as written; N and C are the ends. Square brackets hold non-standard residues; d marks the D form. Ends that are not written are not given here. Peptide text beside a SMILES is read from it. * marks the point of attachment. X1 = CN(C)c1ccc2c(c1)Oc1cc(N(C)C)ccc1C21OC(=O)c2ccc(C(=O)*)cc21; Palmitoyl = CCCCCCCCCCCCCCCC(=O)*; NMeK = CN[C@@H](CCCCN)C(=O)O; Dap = NC[C@H](N)C(=O)O

How the values were obtained:
[1] = only at −80° C. under argon atmosphere; cited from earlier work
[2] = test system: mean arterial blood pressure; conditions: doses of ≦300 μg/kg body weight; reference WO 2013/064508 A1; cited from earlier work
[3] = test system: guinea pig atria; conditions: cited from earlier work
[4] = test system: receptor in rat spleen membranes; conditions: cited from earlier work
[5] = Stability in human blood plasma (TAM-labeled analogues); assay type: in vitro ADME; conditions: 10E-5 M, 37° C., two phase decay, N-terminally TAM-labeled analogues, read-out: HalfLife (Slow) (converted)
From the text: FIG. 3: Stability of peptides in plasma calculated with GraphPad Prism 5 (GraphPad Software) using two phase decay analysis for the determination of half-life (slow) (Test 1e). N-terminally 6-carboxytetramethylrhodamine-(TAM)-labeled analogues of Control: TAM[G^14]ADM(14-52); Example 18: TAM[K^14(PAM), (Dpr^16, E^21)lac]ADM(14-52); and Example 27: TAM[K^14(PAM), (Dpr^16, E^21)lac, Nα-Me-K^46]ADM(14-52).
The stability of the peptides was investigated using N-terminally 6-carboxytetramethylrhodamine-(TAM)-labeled analogues.
Fluorescently labeled ADM analogues were prepared by using solid phase peptide synthesis (SPPS) as described before (general method for peptide synthesis). Manual coupling of 6-carboxytetramethylrhodamine (TAM) to the N-terminus of the peptides was carried out with a 3-fold molar excess of the fluorescence dye, 2-(1H-benzotriazol-1-yl)-1,1,3,3-tetramethyluronium hexafluorophosphate (HBTU) and N,N-Diisopropylethylamine (DIPEA) in DMF under constant shaking for 24 h the resin as described recently (Bohme D., Beck-Sickinger A. G. ChemMedChem 2015, 10: 804-14). The identity of the peptides was confirmed by mass spectrometry with an MALDI-MS (UltraflexIII, Bruker) and an ESI-MS (HCT, Bruker). The observed masses were in correspondence to the calculated masses.
The peptides were dissolved in 1.5 ml of human blood plasma to a concentration of 10E-5 M and incubated at 37° C. under constant shaking. […] The samples were analyzed by RP-HPLC using a Varian VariTide RPC column (particle size 6 μm; pore size 200 Å; 250×4.6 mm) with linear gradients of 0.1% TFA in water and 0.08% TFA in ACN; fluorescence emission was detected at λ=573 nm. The percentage of intact peptide was determined by peak integration. […] The stability of the peptides was calculated with GraphPad Prism 5 (GraphPad Software) using a two phase exponential decay function for the determination of slow-decay phase half-lives (ln(2)/Kslow; Kslow: rate constant of slow part of exponential decay) (Table 3 and FIG. 3).

Molecule: amylin-(1-8) (KCNTATCA; ends and bridges not checked; cysteine pairing not given here; UniProt P10997 34-41, looked up, fragment) [native octapeptide amylin (1-8), literature]
time stable on storage [1]: 6 month

Molecule: adrenomedullin (human) [wt ADM]
duration of blood pressure reduction [2]: ≤ 4 h

Molecule: cyclo [Asp^2, Lys^7]-CGRP
biological activity (agonist function) [3]: loss of agonist function
decrease in affinity to the receptor [4]: 50%

half-life at 0.0001 M [5]: 9 h
Molecule: CC[C@H](C)[C@H](NC(=O)[C@H](CCC(N)=O)NC(=O)[C@H](Cc1c[nH]cn1)NC(=O)[C@H](C)NC(=O)[C@H](CC(C)C)NC(=O)[C@H](CCCCN)NC(=O)[C@H](CCC(N)=O)NC(=O)[C@@H](NC(=O)[C@@H](NC(=O)[C@@H]1CSSC[C@H](NC(=O)CNC(=O)CNC(=O)c2ccc3c(c2)C2(OC3=O)c3ccc(N(C)C)cc3Oc3cc(N(C)C)ccc32)C(=O)N[C@@H](CCCNC(=N)N)C(=O)N[C@@H](Cc2ccccc2)C(=O)NCC(=O)N[C@@H]([C@@H](C)O)C(=O)N1)[C@@H](C)O)C(C)C)C(=O)N[C@@H](Cc1ccc(O)cc1)C(=O)N[C@@H](CCC(N)=O)C(=O)N[C@@H](Cc1ccccc1)C(=O)N[C@H](C(=O)N[C@@H](CC(=O)O)C(=O)N[C@@H](CCCCN)C(=O)N[C@@H](CC(=O)O)C(=O)N[C@@H](CCCCN)C(=O)N[C@@H](CC(=O)O)C(=O)N[C@@H](CC(N)=O)C(=O)N[C@H](C(=O)N[C@@H](C)C(=O)N1CCC[C@H]1C(=O)N[C@@H](CCCNC(=N)N)C(=O)N[C@@H](CO)C(=O)N[C@@H](CCCCN)C(=O)N[C@H](C(=O)N[C@@H](CO)C(=O)N1CCC[C@H]1C(=O)N[C@@H](CCC(N)=O)C(=O)NCC(=O)N[C@@H](Cc1ccc(O)cc1)C(N)=O)[C@@H](C)CC)C(C)C)[C@@H](C)O [TAM-control, TAM[G^14]ADM(14-52), reference compound]

half-life at 0.0001 M [5]: > 96 h
Molecule: CCCCCCCCCCCCCCCC(=O)NCCCC[C@H](NC(=O)c1ccc2c(c1)C1(OC2=O)c2ccc(N(C)C)cc2Oc2cc(N(C)C)ccc21)C(=O)NCC(=O)N[C@H]1CNC(=O)CC[C@@H](C(=O)N[C@H](C(=O)N[C@H](C(=O)N[C@@H](CCC(N)=O)C(=O)N[C@@H](CCCCN)C(=O)N[C@@H](CC(C)C)C(=O)N[C@@H](C)C(=O)N[C@@H](Cc2c[nH]cn2)C(=O)N[C@@H](CCC(N)=O)C(=O)N[C@H](C(=O)N[C@@H](Cc2ccc(O)cc2)C(=O)N[C@@H](CCC(N)=O)C(=O)N[C@@H](Cc2ccccc2)C(=O)N[C@H](C(=O)N[C@@H](CC(=O)O)C(=O)N[C@@H](CCCCN)C(=O)N[C@@H](CC(=O)O)C(=O)N[C@@H](CCCCN)C(=O)N[C@@H](CC(=O)O)C(=O)N[C@@H](CC(N)=O)C(=O)N[C@H](C(=O)N[C@@H](C)C(=O)N2CCC[C@H]2C(=O)N[C@@H](CCCNC(=N)N)C(=O)N[C@@H](CO)C(=O)N[C@@H](CCCCN)C(=O)N[C@H](C(=O)N[C@@H](CO)C(=O)N2CCC[C@H]2C(=O)N[C@@H](CCC(N)=O)C(=O)NCC(=O)N[C@@H](Cc2ccc(O)cc2)C(N)=O)[C@@H](C)CC)C(C)C)[C@@H](C)O)[C@@H](C)CC)C(C)C)[C@@H](C)O)NC(=O)[C@H]([C@@H](C)O)NC(=O)CNC(=O)[C@H](Cc2ccccc2)NC(=O)[C@H](CCCNC(=N)N)NC1=O [TAM-18, TAM[K^14(PAM), (Dpr^16, E^21)lac]ADM(14-52)] (X1-K(Palmitoyl)G[Dap]RFGTETVQKLAHQIYQFTDKDKDNVAPRSKISPQGY-NH2; lactam 3-8)

half-life at 0.0001 M [5]: > 96 h
Molecule: CCCCCCCCCCCCCCCC(=O)NCCCC[C@H](NC(=O)c1ccc2c(c1)C1(OC2=O)c2ccc(N(C)C)cc2Oc2cc(N(C)C)ccc21)C(=O)NCC(=O)N[C@H]1CNC(=O)CC[C@@H](C(=O)N[C@H](C(=O)N[C@H](C(=O)N[C@@H](CCC(N)=O)C(=O)N[C@@H](CCCCN)C(=O)N[C@@H](CC(C)C)C(=O)N[C@@H](C)C(=O)N[C@@H](Cc2c[nH]cn2)C(=O)N[C@@H](CCC(N)=O)C(=O)N[C@H](C(=O)N[C@@H](Cc2ccc(O)cc2)C(=O)N[C@@H](CCC(N)=O)C(=O)N[C@@H](Cc2ccccc2)C(=O)N[C@H](C(=O)N[C@@H](CC(=O)O)C(=O)N[C@@H](CCCCN)C(=O)N[C@@H](CC(=O)O)C(=O)N[C@@H](CCCCN)C(=O)N[C@@H](CC(=O)O)C(=O)N[C@@H](CC(N)=O)C(=O)N[C@H](C(=O)N[C@@H](C)C(=O)N2CCC[C@H]2C(=O)N[C@@H](CCCNC(=N)N)C(=O)N[C@@H](CO)C(=O)N(C)[C@@H](CCCCN)C(=O)N[C@H](C(=O)N[C@@H](CO)C(=O)N2CCC[C@H]2C(=O)N[C@@H](CCC(N)=O)C(=O)NCC(=O)N[C@@H](Cc2ccc(O)cc2)C(N)=O)[C@@H](C)CC)C(C)C)[C@@H](C)O)[C@@H](C)CC)C(C)C)[C@@H](C)O)NC(=O)[C@H]([C@@H](C)O)NC(=O)CNC(=O)[C@H](Cc2ccccc2)NC(=O)[C@H](CCCNC(=N)N)NC1=O [TAM-27, TAM[K^14(PAM), (Dpr^16, E^21)lac, Nα-Me-K^46]ADM(14-52)] (X1-K(Palmitoyl)G[Dap]RFGTETVQKLAHQIYQFTDKDKDNVAPRS[NMeK]ISPQGY-NH2; lactam 3-8)
